This is an account of results in patent US6469028B1, “Synthesis and use of retinoid compounds having negative hormone and/or anatgonist activities” (Allergan, Inc., priority 1995, dated 2002).

The target in assay [1] is T1, RXRγ (Mus musculus, UniProt P28705).
T1 construct: expressed in transfected cells; host or cells: CV1 cells
T1 sequence (P28705 1-463): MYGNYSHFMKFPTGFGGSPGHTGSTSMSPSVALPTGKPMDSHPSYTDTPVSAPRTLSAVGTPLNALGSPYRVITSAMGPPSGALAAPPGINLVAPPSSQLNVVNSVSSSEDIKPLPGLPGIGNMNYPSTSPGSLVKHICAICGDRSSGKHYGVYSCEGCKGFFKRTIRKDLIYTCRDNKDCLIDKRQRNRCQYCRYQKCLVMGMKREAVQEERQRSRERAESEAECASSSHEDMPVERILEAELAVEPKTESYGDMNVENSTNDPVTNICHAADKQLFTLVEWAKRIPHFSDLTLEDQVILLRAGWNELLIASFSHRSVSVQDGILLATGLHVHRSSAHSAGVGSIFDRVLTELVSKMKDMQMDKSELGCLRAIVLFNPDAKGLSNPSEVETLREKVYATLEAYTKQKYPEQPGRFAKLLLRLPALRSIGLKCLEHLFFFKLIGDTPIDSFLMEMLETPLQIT
Nature of the assay: Holoreceptor transactivation assay. Format: cell-based. The settings on record: relative to all trans retinoic acid; read-out: Transactivation Assay Efficacy (% of RA activity) RXRγ.

Assay [2] has as its target T2, RXRα (Homo sapiens, UniProt P19793).
T2 construct: expressed in transfected cells; host or cells: CV1 cells
T2 sequence (P19793 1-462): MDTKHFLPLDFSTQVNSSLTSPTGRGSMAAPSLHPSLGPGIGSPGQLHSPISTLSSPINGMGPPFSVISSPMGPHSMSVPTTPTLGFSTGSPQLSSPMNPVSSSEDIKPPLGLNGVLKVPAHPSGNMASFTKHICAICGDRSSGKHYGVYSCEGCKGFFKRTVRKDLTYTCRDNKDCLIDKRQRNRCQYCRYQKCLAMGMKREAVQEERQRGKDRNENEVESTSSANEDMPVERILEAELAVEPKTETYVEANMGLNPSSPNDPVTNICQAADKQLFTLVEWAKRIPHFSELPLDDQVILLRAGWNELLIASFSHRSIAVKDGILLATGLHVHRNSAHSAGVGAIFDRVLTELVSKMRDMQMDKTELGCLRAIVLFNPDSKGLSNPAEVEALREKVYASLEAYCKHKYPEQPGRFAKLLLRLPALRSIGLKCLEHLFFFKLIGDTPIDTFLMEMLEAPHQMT
Kind of assay: Holoreceptor transactivation assay. The settings on record: relative to all trans retinoic acid; read-out: Transactivation Assay Efficacy (% of RA activity) RXRα. It counts as cell-based.

For assay [3], the system named is RAR-γ-VP-16. Nature of the assay: Example 12: assay for retinoid negative hormones, CV-1 cells. To be noted: 10^−9 to 10^−6 M, 18 hours, no agonist. It counts as cell-based.
The target in assay [4] is T3, RARγ (Homo sapiens, UniProt P13631).
T3 sequence (P13631 1-454): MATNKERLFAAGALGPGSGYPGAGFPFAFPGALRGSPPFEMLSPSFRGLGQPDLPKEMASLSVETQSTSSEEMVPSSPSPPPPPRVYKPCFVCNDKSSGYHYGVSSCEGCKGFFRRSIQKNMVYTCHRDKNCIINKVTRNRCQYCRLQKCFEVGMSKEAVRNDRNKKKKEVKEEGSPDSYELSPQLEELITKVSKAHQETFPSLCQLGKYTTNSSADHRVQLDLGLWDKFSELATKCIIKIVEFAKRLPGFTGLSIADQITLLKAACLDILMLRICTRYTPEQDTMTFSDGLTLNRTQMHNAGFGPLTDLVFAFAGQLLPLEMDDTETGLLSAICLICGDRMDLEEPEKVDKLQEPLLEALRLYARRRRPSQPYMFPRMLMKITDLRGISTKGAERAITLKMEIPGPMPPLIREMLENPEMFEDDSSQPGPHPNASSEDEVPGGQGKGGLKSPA
Nature of the assay: [3H]-ATRA displacement assay, baculovirus expressed receptor. Format: binding. Further details: made in house; host or cells: baculovirus expression system.

Where [5] appears, read: Table 12, relative affinity, competition of 3H-ATRA binding, Cheng-Prussof equation.

A word on the Kd: it is the equilibrium constant for the complex coming apart. As for `CC1(C)CC=C(c2ccc(C(F)(F)F)cc2)c2cc(C#Cc3ccc(C(=O)O)cc3)ccc21` [Compound 23, 4-[(5,6-Dihydro-5,5-dimethyl-8-(4-trifluoromethylphenyl)-2-naphthalenyl)ethynyl]benzoic acid], the Emax in assay [1] was found to be 4%; in assay [2] it was 1%. Besides, the “RAR-γ-VP-16 constitutive activity (negative hormone activity)” value (from here on “RAR-γ-VP-16 constitutive activity”) in assay [3] is “dose dependent repression of RAR-γ-VP-16 constitutive activity”. The compound also displayed a Kd in assay [4] (setting [5]) of 25 nM.

With `CC1(C)CC=C(c2ccc(Cl)cc2)c2cc(C#Cc3ccc(C(=O)O)cc3)ccc21` [Compound 25, 4-[(5,6-Dihydro-5,5-dimethyl-8-(4-chlorophenyl)-2-naphthalenyl)ethynyl]benzoic acid], the Emax in assay [1] was determined as 3%; in assay [2] it was 5%. In assay [3], the “RAR-γ-VP-16 constitutive activity” value was “dose dependent repression of RAR-γ-VP-16 constitutive activity”. This compound also displayed a Kd in assay [4] (setting [5]) of 13 nM.

Turning to `Cc1ccc(C2=CCC(C)(C)c3ccc(C#Cc4ccc(C(=O)O)cc4)cc32)cc1` [Compound 60, 4-[(5,6-dihydro-5,5-dimethyl-8-(4-methylphenyl)-2-naphthalenyl)ethynyl]benzoic acid], the Emax in assay [1] and in assay [2] was 3% throughout. In addition, in assay [3], the “RAR-γ-VP-16 constitutive activity” value is reported as “dose dependent repression of RAR-γ-VP-16 constitutive activity”. Further, the results for the equilibrium dissociation constant (Kd) in assay [4] (Table 11) and in assay [4] (setting [5]) were 3 nM and 6 nM, respectively.
